Results reported in US7985753B2, “Substituted pyrazolo[1,5-A]pyrimidines as metabotropic glutamate receptor modulators” (MERZ PHARMA GmbH & Co. KGaA, priority 2006, dated 2011).

Target: T1, transmembrane allosteric modulatory sites of mGluR5 receptors in cortical membranes (Rattus norvegicus, UniProt P31424)
T1 construct: from tissue; host or cells: rat brain cortex membranes
Test: [^3H]-MPEP binding assay in rat cortical membranes
Settings: read-out: mGluR5_M_MPEP_r_CTX_IC50
Experimental: Male Sprague-Dawley rats (200-250 g) are decapitated and their brains are removed rapidly. The cortex is dissected and homogenized in 20 volumes of ice-cold 0.32 M sucrose using a glass-Teflon homogenizer. The homogenate is centrifuged at 1000×g for 10 minutes. The pellet is discarded and the supernatant centrifuged at 20,000×g for 20 minutes. The resulting pellet is re-suspended in 20 volumes of distilled water and centrifuged for 20 minutes at 8000×g. Then the supernatant and the buffy coat are centrifuged at 48,000×g for 20 minutes in the presence of 50 mM Tris-HCl, pH 8.0. The pellet is then re-suspended and centrifuged two to three more times at 48,000×g for 20 minutes in the presence of 50 mM Tris-HCl, pH 8.0. All centrifugation steps are carried out at 4° C. After resuspension in 5 volumes of 50 mM Tris-HCl, pH 8.0 the membrane suspension is frozen rapidly at −80° C.
On the day of assay the membranes are thawed and washed four times by resuspension in 50 mM Tris-HCl, pH 8.0 and centrifugation at 48,000×g for 20 minutes and finally re-suspended in 50 mM Tris-HCl, pH 7.4. The amount of protein in the final membrane preparation (500-700 μg/ml) is determined according to the method of Lowry (Lowry O. H. et al. 1951. J. Biol. Chem. 193, 256-275).
Alternatively, assays are performed with [^3H]-MMPEP (2-(3-methoxyphenylethynyl)-6-methylpyridine hydrochloride) as radioligand. The incubations are continued at room temperature for 60 minutes (equilibrium is achieved under the conditions used). […] Incubations are terminated using a Millipore filter system. The samples are rinsed twice with 4 ml of ice-cold assay buffer over glass fibre filters (Schleicher & Schuell, Germany) under a constant vacuum. Following separation and rinse, the filters are placed into scintillation liquid (5 ml Ultima Gold, Perkin Elmer, Germany) and radioactivity retained on the filters is determined with a conventional liquid scintillation counter (Canberra Packard, Germany).

T1 sequence (P31424 21-1203): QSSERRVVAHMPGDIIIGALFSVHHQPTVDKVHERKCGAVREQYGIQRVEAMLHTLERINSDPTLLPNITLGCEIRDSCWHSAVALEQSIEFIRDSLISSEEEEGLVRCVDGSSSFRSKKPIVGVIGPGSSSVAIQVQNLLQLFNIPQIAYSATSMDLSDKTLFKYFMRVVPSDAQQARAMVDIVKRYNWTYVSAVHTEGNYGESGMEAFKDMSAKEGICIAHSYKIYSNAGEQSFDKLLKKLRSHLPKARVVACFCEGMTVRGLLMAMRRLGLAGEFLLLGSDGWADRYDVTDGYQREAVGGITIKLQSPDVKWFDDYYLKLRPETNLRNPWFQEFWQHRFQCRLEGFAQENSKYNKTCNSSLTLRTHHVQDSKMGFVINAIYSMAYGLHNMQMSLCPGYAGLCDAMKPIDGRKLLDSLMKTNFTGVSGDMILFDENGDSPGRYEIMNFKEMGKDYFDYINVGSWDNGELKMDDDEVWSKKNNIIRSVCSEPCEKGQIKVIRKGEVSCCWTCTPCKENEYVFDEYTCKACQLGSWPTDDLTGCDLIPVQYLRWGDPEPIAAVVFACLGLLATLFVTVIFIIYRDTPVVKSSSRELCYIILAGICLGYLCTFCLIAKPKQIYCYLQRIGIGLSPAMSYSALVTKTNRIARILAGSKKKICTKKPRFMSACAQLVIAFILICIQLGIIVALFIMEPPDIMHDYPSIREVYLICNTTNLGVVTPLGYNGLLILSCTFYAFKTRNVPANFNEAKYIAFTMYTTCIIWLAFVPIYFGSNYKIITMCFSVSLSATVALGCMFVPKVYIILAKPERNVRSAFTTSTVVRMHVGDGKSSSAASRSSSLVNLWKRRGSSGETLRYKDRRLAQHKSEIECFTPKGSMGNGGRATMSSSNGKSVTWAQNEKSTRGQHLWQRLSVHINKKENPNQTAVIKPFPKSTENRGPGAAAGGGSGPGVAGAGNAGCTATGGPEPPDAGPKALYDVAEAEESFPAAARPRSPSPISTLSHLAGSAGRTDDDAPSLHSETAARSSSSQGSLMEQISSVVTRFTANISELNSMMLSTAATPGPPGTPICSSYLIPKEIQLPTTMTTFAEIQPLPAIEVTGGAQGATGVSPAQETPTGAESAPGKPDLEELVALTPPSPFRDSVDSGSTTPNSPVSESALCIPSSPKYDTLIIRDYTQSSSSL

Compound	IC50 [nM]
CC1c2cc(F)ccc2CCN1C(=O)c1cc2ncc(Br)cn2n1 (centres unmarked) [drawing 454, (6-Bromo-pyrazolo[1,5-a]pyrimidin-2-yl)-(7-fluoro-1-methyl-3,4-dihydro-1H-isoquinolin-2-yl)-methanone]	30
CC1c2cccc(F)c2CCN1C(=O)c1cc2ncc(Br)cn2n1 (centres unmarked) [drawing 455, (6-Bromo-pyrazolo[1,5-a]pyrimidin-2-yl)-(5-fluoro-1-methyl-3,4-dihydro-1H-isoquinolin-2-yl)-methanone]	10
CC1c2ccc(F)cc2CCN1C(=O)c1cc2ncc(Cl)cn2n1 (centres unmarked) [drawing 456, (6-Chloro-pyrazolo[1,5-a]pyrimidin-2-yl)-(6-fluoro-1-methyl-3,4-dihydro-1H-isoquinolin-2-yl)-methanone]	40
CC1CN(C(=O)c2cc3ncc(Cl)cn3n2)C(C)c2ccccc21 (centres unmarked) [drawing 457, (6-Chloro-pyrazolo[1,5-a]pyrimidin-2-yl)-(1,4-dimethyl-3,4-dihydro-1H-isoquinolin-2-yl)-methanone]	118
CC1CN(C(=O)c2cc3ncc(Br)cn3n2)C(C)c2ccccc21 (centres unmarked) [drawing 458, (6-Bromo-pyrazolo[1,5-a]pyrimidin-2-yl)-(1,4-dimethyl-3,4-dihydro-1H-isoquinolin-2-yl)-methanone]	91

The remaining lines, values ahead:

IC50 [nM]	Compound
20	COc1ccc2c(c1)CCN(C(=O)c1cc3ncc(Br)cn3n1)C2C (centres unmarked) [drawing 459, (6-Bromo-pyrazolo[1,5-a]pyrimidin-2-yl)-(6-methoxy-1-methyl-3,4-dihydro-1H-isoquinolin-2-yl)-methanone]
27	COc1ccc2c(c1)CCN(C(=O)c1cc3ncc(Cl)cn3n1)C2C (centres unmarked) [drawing 460, (6-Chloro-pyrazolo[1,5-a]pyrimidin-2-yl)-(6-methoxy-1-methyl-3,4-dihydro-1H-isoquinolin-2-yl)-methanone]
21	CC1c2cccc(Br)c2CCN1C(=O)c1cc2ncc(Cl)cn2n1 (centres unmarked) [drawing 461, (5-Bromo-1-methyl-3,4-dihydro-1H-isoquinolin-2-yl)-(6-chloro-pyrazolo[1,5-a]pyrimidin-2-yl)-methanone]
107	O=C(c1cc2ncc(Cl)cn2n1)N1CCc2ncc(Br)cc2C1 [drawing 462, (3-Bromo-7,8-dihydro-5H-[1,6]naphthyridin-6-yl)-(6-chloro-pyrazolo[1,5-a]pyrimidin-2-yl)-methanone]

Target: metabotropic glutamate receptor (mGluR5) (Homo sapiens, UniProt P41594)
Test: Activity as mGluR5 modulator, test not specified
Settings: not given

metabotropic glutamate receptor (mGluR5), sequence (P41594 21-1212): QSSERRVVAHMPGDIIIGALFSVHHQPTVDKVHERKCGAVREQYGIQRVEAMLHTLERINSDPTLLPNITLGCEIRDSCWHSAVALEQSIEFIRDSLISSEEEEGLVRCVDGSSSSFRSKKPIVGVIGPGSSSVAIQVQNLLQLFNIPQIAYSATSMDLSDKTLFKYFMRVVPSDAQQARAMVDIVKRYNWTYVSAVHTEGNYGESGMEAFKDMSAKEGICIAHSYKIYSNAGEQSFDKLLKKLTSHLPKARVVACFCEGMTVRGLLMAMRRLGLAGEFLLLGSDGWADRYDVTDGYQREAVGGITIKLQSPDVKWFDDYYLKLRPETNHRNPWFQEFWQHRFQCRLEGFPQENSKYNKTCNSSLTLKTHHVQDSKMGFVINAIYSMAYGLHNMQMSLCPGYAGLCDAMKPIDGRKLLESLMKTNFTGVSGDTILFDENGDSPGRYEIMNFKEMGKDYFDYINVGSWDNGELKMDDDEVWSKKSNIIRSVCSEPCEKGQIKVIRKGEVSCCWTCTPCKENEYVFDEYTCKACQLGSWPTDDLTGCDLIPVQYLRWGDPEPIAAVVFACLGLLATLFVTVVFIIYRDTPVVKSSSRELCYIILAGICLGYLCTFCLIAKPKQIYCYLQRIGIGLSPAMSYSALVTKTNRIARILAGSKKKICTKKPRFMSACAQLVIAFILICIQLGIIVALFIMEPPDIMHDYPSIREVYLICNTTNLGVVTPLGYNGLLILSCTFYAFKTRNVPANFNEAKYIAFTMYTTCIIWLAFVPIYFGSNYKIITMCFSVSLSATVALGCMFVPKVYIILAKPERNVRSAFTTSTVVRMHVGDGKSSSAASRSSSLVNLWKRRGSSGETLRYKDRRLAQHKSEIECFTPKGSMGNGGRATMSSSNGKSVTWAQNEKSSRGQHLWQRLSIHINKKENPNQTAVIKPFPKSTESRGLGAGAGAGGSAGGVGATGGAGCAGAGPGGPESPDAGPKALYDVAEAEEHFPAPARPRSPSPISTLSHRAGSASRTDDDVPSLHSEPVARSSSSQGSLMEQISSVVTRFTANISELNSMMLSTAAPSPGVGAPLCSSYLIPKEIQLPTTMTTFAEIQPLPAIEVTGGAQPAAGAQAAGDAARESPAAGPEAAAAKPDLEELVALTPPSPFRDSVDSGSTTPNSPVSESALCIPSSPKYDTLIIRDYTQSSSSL

activity as metabotropic glutamate receptor (mGluR5) modulator	Compound
no particular activity	O=C(c1cc2ncc(Br)cn2n1)N1CCCCC1 [Example B308, (6-Bromopyrazolo[1,5-a]pyrimidin-2-yl)-piperidin-1-yl-methanone]
no particular activity	O=C(c1cc2ncc(Br)cn2n1)N1CCOCC1 [Example B310, (6-Bromopyrazolo[1,5-a]pyrimidin-2-yl)-morpholin-4-yl-methanone]
